Source: PubChem BioAssay AID330 (DTP/NCI, 2004)
Several values for one entry are separate records, joined by “and”; a condition that tells them apart may be missing. Equal values may be shown once. Toxic doses and inconclusive results are not listed. The calls were made as follows: active = survival T/C of 150% or more; inactive = T/C below 125% in these data.

System: P388 leukemia ip, CD2F1 mice, survival T/C
Assay: NCI In Vivo Anticancer Drug Screen. Data for tumor model P388 Leukemia (intraperitoneal) in CD2F1 (CDF1) mice
Details: endpoint: median survival time, higher = longer survival
Procedure, shortened: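 Mice carrying the transplanted tumor received test compound or vehicle. Survival was recorded in each group, and the value is the treated-group measurement divided by that of the vehicle-treated control group.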

[1] = dose: 50.0 mg/kg/injection, schedule: Q04DX003 (ip), vehicle: Klucel (hydroxypropylcellulose) (HPC)
[2] = dose: 100.0 mg/kg/injection, schedule: Q04DX003 (ip), vehicle: Klucel (hydroxypropylcellulose) (HPC)
[3] = dose: 25.0 mg/kg/injection, schedule: Q04DX003 (ip), vehicle: Klucel (hydroxypropylcellulose) (HPC)
[4] = dose: 60.0 mg/kg/injection, schedule: Q01DX005 (ip), vehicle: saline with Tween-80
[5] = dose: 120.0 mg/kg/injection, schedule: Q01DX005 (ip), vehicle: saline with Tween-80
[6] = dose: 240.0 mg/kg/injection, schedule: Q01DX005 (ip), vehicle: saline with Tween-80
[7] = dose: 25.0 mg/kg/injection, schedule: Q04DX002 (ip), vehicle: saline with Tween-80
[8] = dose: 50.0 mg/kg/injection, schedule: Q04DX002 (ip), vehicle: saline with Tween-80
[9] = dose: 60.0 mg/kg/injection, schedule: Q01DX005 (ip), vehicle: saline
[10] = dose: 120.0 mg/kg/injection, schedule: Q01DX005 (ip), vehicle: saline
[11] = dose: 240.0 mg/kg/injection, schedule: Q01DX005 (ip), vehicle: saline
[12] = dose: 50.0 mg/kg/injection, schedule: Q01DX005 (ip), vehicle: Klucel (hydroxypropylcellulose) (HPC)
[13] = dose: 100.0 mg/kg/injection, schedule: Q01DX005 (ip), vehicle: Klucel (hydroxypropylcellulose) (HPC)
[14] = dose: 200.0 mg/kg/injection, schedule: Q01DX005 (ip), vehicle: Klucel (hydroxypropylcellulose) (HPC)
[15] = dose: 100.0 mg/kg/injection, schedule: Q04DX002 (ip), vehicle: saline with Tween-80
[16] = dose: 200.0 mg/kg/injection, schedule: Q04DX002 (ip), vehicle: saline with Tween-80
[17] = dose: 6.25 mg/kg/injection, schedule: Q01DX005 (ip), vehicle: Klucel (hydroxypropylcellulose) (HPC)
[18] = dose: 12.5 mg/kg/injection, schedule: Q01DX005 (ip), vehicle: Klucel (hydroxypropylcellulose) (HPC)
[19] = dose: 25.0 mg/kg/injection, schedule: Q01DX005 (ip), vehicle: Klucel (hydroxypropylcellulose) (HPC)

Measured: T/C

CNC(=O)Nc1nc2ccccc2[nH]1
active: dose: 640.0 mg/kg/injection, schedule: Q04DX003 (ip), vehicle: other 154 % of control
inactive: dose: 20.0 mg/kg/injection, schedule: Q04DX003 (ip), vehicle: other 100 % of control | dose: 20.0 mg/kg/injection, schedule: Q04DX003 (oral), vehicle: other 100 % of control | dose: 40.0 mg/kg/injection, schedule: Q04DX003 (ip), vehicle: other 95 % of control | dose: 40.0 mg/kg/injection, schedule: Q04DX003 (oral), vehicle: other 100 % of control | [1] 100 % of control (2×) and 109 % of control | dose: 80.0 mg/kg/injection, schedule: Q04DX003 (ip), vehicle: other 102 % of control | dose: 80.0 mg/kg/injection, schedule: Q04DX003 (oral), vehicle: other 100 % of control | [2] 105 % of control and 111 % of control and 116 % of control | dose: 160.0 mg/kg/injection, schedule: Q04DX003 (ip), vehicle: other 111 % of control | dose: 160.0 mg/kg/injection, schedule: Q04DX003 (oral), vehicle: other 104 % of control | dose: 200.0 mg/kg/injection, schedule: Q04DX003 (ip), vehicle: Klucel (hydroxypropylcellulose) (HPC) 112 % of control and 118 % of control | dose: 320.0 mg/kg/injection, schedule: Q04DX003 (ip), vehicle: other 119 % of control | dose: 320.0 mg/kg/injection, schedule: Q04DX003 (oral), vehicle: other 102 % of control | dose: 400.0 mg/kg/injection, schedule: Q04DX003 (ip), vehicle: Klucel (hydroxypropylcellulose) (HPC) 109 % of control and 121 % of control | dose: 640.0 mg/kg/injection, schedule: Q04DX003 (oral), vehicle: other 109 % of control

COc1cc2c(c(OC)c1OC)CCC1C(=O)NN=C21 (configuration not stated)
inactive: dose: 12.5 mg/kg/injection, schedule: Q04DX003 (ip), vehicle: Klucel (hydroxypropylcellulose) (HPC) 111 % of control | [3] 104 % of control | [1] 111 % of control

O=C(CBr)Nc1ccc(Cc2ccc(NC(=O)CBr)cc2)cc1
inactive: dose: 100.0 mg/kg/injection, schedule: Q01DX001 (ip), vehicle: saline with Tween-80 99 % of control | dose: 200.0 mg/kg/injection, schedule: Q01DX001 (ip), vehicle: saline with Tween-80 93 % of control | dose: 400.0 mg/kg/injection, schedule: Q01DX001 (ip), vehicle: saline with Tween-80 94 % of control

COc1ccc(C2c3cc4c(cc3OC3(O)CCCC(=O)C23)OCO4)cc1 (configuration not stated)
inactive: [4] 100 % of control | [5] 100 % of control | [6] 93 % of control

COCCOCCOCCOCCOCCOCCOCCOC(=O)CCn1cc(F)c(=O)[nH]c1=O
inactive: dose: 62.5 mg/kg/injection, schedule: Q04DX002 (ip), vehicle: saline 99 % of control | dose: 125.0 mg/kg/injection, schedule: Q04DX002 (ip), vehicle: saline 108 % of control | dose: 250.0 mg/kg/injection, schedule: Q04DX002 (ip), vehicle: saline 101 % of control | dose: 500.0 mg/kg/injection, schedule: Q04DX002 (ip), vehicle: saline 109 % of control

Cc1nc(N)[nH]c(=O)c1CCCC#N
inactive: dose: 60.0 mg/kg/injection, schedule: Q01DX005 (ip), vehicle: Klucel (hydroxypropylcellulose) (HPC) 105 % of control | dose: 120.0 mg/kg/injection, schedule: Q01DX005 (ip), vehicle: Klucel (hydroxypropylcellulose) (HPC) 108 % of control

CCCCC1N=CNc2c1ccc1c2[nH]c2ccccc21 (configuration not stated)
inactive: dose: 12.5 mg/kg/injection, schedule: Q04DX002 (ip), vehicle: saline with Tween-80 101 % of control | [7] 99 % of control | [8] 111 % of control

Cc1nc2c(cc1[N+](=O)[O-])C(=O)NCCN2
inactive: [3] 91 % of control | [1] 100 % of control | [2] 96 % of control

OC1(C2=COCCO2)CCCCC1
inactive: [9] 105 % of control | [10] 110 % of control | [11] 105 % of control

Nc1nc(F)nc2c1nnn2C1OC(CO)C(O)C1O (configuration not stated)
inactive: dose: 12.5 mg/kg/injection, schedule: Q01DX001 (ip), vehicle: saline 112 % of control | dose: 25.0 mg/kg/injection, schedule: Q01DX001 (ip), vehicle: saline 109 % of control | dose: 50.0 mg/kg/injection, schedule: Q01DX001 (ip), vehicle: saline 109 % of control | dose: 50.0 mg/kg/injection, schedule: Q01DX005 (ip), vehicle: saline 121 % of control | dose: 100.0 mg/kg/injection, schedule: Q01DX001 (ip), vehicle: saline 104 % of control | dose: 100.0 mg/kg/injection, schedule: Q01DX005 (ip), vehicle: saline 114 % of control

Cc1cc(=O)c(C(=O)NC(=O)c2ccccn2)c(C)o1
inactive: [12] 101 % of control | [13] 101 % of control | [14] 107 % of control

Cc1ccc(S(=O)(=O)N/N=C/c2ccccc2)cc1
inactive: dose: 25.0 mg/kg/injection, schedule: Q01DX009 (ip), vehicle: Klucel (hydroxypropylcellulose) (HPC) 95 % of control | dose: 50.0 mg/kg/injection, schedule: Q01DX009 (ip), vehicle: Klucel (hydroxypropylcellulose) (HPC) 94 % of control | dose: 100.0 mg/kg/injection, schedule: Q01DX009 (ip), vehicle: Klucel (hydroxypropylcellulose) (HPC) 95 % of control | dose: 200.0 mg/kg/injection, schedule: Q01DX009 (ip), vehicle: Klucel (hydroxypropylcellulose) (HPC) 97 % of control | dose: 400.0 mg/kg/injection, schedule: Q01DX009 (ip), vehicle: Klucel (hydroxypropylcellulose) (HPC) 109 % of control

O=C(N=C=S)c1ccccc1
inactive: dose: 100.0 mg/kg/injection, schedule: Q04DX003 (ip), vehicle: other 90 % of control | dose: 200.0 mg/kg/injection, schedule: Q04DX003 (ip), vehicle: other 100 % of control | dose: 400.0 mg/kg/injection, schedule: Q04DX003 (ip), vehicle: other 109 % of control

Oc1c(Cl)cc(Cl)cc1CN1CCOCC1
inactive: dose: 50.0 mg/kg/injection, schedule: Q01DX009 (ip), vehicle: suspension in saline 89 % of control | dose: 100.0 mg/kg/injection, schedule: Q01DX009 (ip), vehicle: suspension in saline 87 % of control | dose: 200.0 mg/kg/injection, schedule: Q01DX009 (ip), vehicle: suspension in saline 98 % of control | dose: 400.0 mg/kg/injection, schedule: Q01DX009 (ip), vehicle: suspension in saline 109 % of control

CC(=O)CCNc1ccc(O)c2c1C(=O)c1ccccc1C2=O
inactive: [7] 100 % of control | [8] 101 % of control | [15] 94 % of control | [16] 100 % of control

CC1C(=O)OC2C1CCC1(C)C=C(Cl)C(=O)C(C)(Cl)C21O (configuration not stated)
inactive: [8] 111 % of control | [15] 107 % of control | [16] 100 % of control

O=C1CN2C=CC=CC2=NN1
inactive: [9] 100 % of control | [10] 99 % of control | [11] 101 % of control

COc1ccc(OC)c(NC(=O)CCCC(=O)C(C#N)c2ccccc2C)c1 (configuration not stated)
inactive: [4] 105 % of control | [5] 105 % of control | [6] 104 % of control

CCOC(=O)CC/C(=C/c1cccc(OC)c1)[N+](=O)[O-]
inactive: dose: 50.0 mg/kg/injection, schedule: Q01DX001 (ip), vehicle: Klucel (hydroxypropylcellulose) (HPC) 105 % of control | dose: 100.0 mg/kg/injection, schedule: Q01DX001 (ip), vehicle: Klucel (hydroxypropylcellulose) (HPC) 107 % of control | dose: 200.0 mg/kg/injection, schedule: Q01DX001 (ip), vehicle: Klucel (hydroxypropylcellulose) (HPC) 107 % of control

CC(C)C(=O)[O][Bi]([c]1ccccc1)[c]1ccccc1
inactive: [17] 108 % of control and 110 % of control | [18] 101 % of control and 113 % of control | [19] 105 % of control and 113 % of control

N=c1c2ncn3c(=O)n(-c4ccccc4)c(nc(=O)n1-c1ccccc1)c23
inactive: [4] 101 % of control | [5] 100 % of control | [6] 98 % of control

Oc1cc2c(cc1C(c1ccc3c(c1)OCO3)n1ccnc1)OCO2 (configuration not stated)
inactive: [4] 108 % of control | [5] 98 % of control | [6] 94 % of control

CN(C)CCCSc1ccccc1NC1=C(Cl)C(=O)C(Nc2ccccc2SCCCN(C)C)=C(Cl)C1=O
inactive: [17] 100 % of control | [18] 106 % of control | [19] 98 % of control | [12] 106 % of control | [13] 108 % of control | [14] 104 % of control
